Results: the supplement of paper PMC11628255, “Interference of metal ions on the bioluminescent signal of firefly, Renilla, and NanoLuc luciferases in high-throughput screening assays” (Frontiers in Chemistry, 2024)

What was measured:
Experiment in all cases: normalised percent inhibition of luminescence (vs positive and negative controls); higher = stronger inhibition
[1] = test system: Renilla luciferase (RLuc)
Protocol: (§1)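 Concentration-response (>=11 concentrations) of metal salts on purified FLuc, NLuc or RLuc luminescence in screening (SC) or 100 mM HEPES (H) buffer; salt pre-incubated with enzyme 10 min at RT, read 10 min after substrate. Normalised percent inhibition vs plate positive (PTC-124, isradipine, BTS) and DMSO negative controls; triplicate wells.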

[2] = test system: NanoLuc luciferase (NLuc)
Protocol: as §1

[3] = test system: firefly luciferase (FLuc)
Protocol: as §1

CC#N.CC#N.CC#N.CC#N.F[B-](F)(F)F.[Cu+] [tetrakis(acetonitrile)copper(I) tetrafluoroborate]
normalised percent inhibition [%]
Conditions	[1]	[2]	[3]
metal salt concentration 15.6 nM, 100 mM HEPES buffer	–	–	31.6
metal salt concentration 31.25 nM, 100 mM HEPES buffer	–	–	19.4
metal salt concentration 62.5 nM, 100 mM HEPES buffer	–	–	94.7
metal salt concentration 0.0001 mM, 100 mM HEPES buffer	-13.8	2.08	98.82
metal salt concentration 0.000125 mM, 100 mM HEPES buffer	–	–	99.64
metal salt concentration 0.00025 mM, 100 mM HEPES buffer	12.4	-0.342	99.92
metal salt concentration 0.0005 mM, 100 mM HEPES buffer	-2.77	3.53	100.6
metal salt concentration 0.0005 mM, screening conditions buffer	–	–	19.7
metal salt concentration 0.001 mM, 100 mM HEPES buffer	-10.8	4.37	100.1
metal salt concentration 0.001 mM, screening conditions buffer	–	–	-12.4
metal salt concentration 0.002 mM, screening conditions buffer	12.9	0.453	6.86
metal salt concentration 0.005 mM, screening conditions buffer	16.7	0.553	13.5
metal salt concentration 0.01 mM, screening conditions buffer	11.3	1.88	8.64
metal salt concentration 0.02 mM, screening conditions buffer	2.75	9.53	7.18
metal salt concentration 0.025 mM, 100 mM HEPES buffer	75.8	5.84	100.5
metal salt concentration 0.025 mM, screening conditions buffer	–	–	20.1
metal salt concentration 0.05 mM, 100 mM HEPES buffer	102	40.1	100.3
metal salt concentration 0.05 mM, screening conditions buffer	13.4	91.9	3.96
metal salt concentration 0.1 mM, 100 mM HEPES buffer	105	92.9	100.5
metal salt concentration 0.1 mM, screening conditions buffer	9.12	158	24.1
metal salt concentration 0.2 mM, screening conditions buffer	3.41	158.7	31.5
metal salt concentration 0.25 mM, 100 mM HEPES buffer	–	–	100.3
metal salt concentration 0.5 mM, 100 mM HEPES buffer	106	101.8	100.5
metal salt concentration 0.5 mM, screening conditions buffer	106.2	160	56.9
metal salt concentration 1 mM, 100 mM HEPES buffer	107.5	101.8	100.3
metal salt concentration 1 mM, screening conditions buffer	106.7	159.9	99.7
metal salt concentration 2.5 mM, 100 mM HEPES buffer	106	101.9	100.5
metal salt concentration 2.5 mM, screening conditions buffer	106.6	161.2	100.3
metal salt concentration 5 mM, 100 mM HEPES buffer	107	101.9	100.3
metal salt concentration 5 mM, screening conditions buffer	106.5	161.65	100.4
metal salt concentration 10 mM, screening conditions buffer	–	–	100.1
metal salt concentration 20 mM, screening conditions buffer	–	–	100.2
